Measured values as given in US7202235B2, “Tetracycline compounds for treatment of cryptosporidium parvum related disorders” (Trustees of Tufts College, priority 2000, dated 2007).

System: Cryptosporidium parvum
Experiment: Assay for the ability of tetracycline compounds to control Cryptosporidium parvum infection in vitro (indirect immunofluorescence parasite count)
Format: cell-based
Details: C. parvum GCH1 oocysts in MDCK/MDBK cell monolayers, 48 hour incubation, IF parasite count, class by concentration giving 70% inhibition
Description: This assay is designed to test the ability of a tetracycline compound to control Cryptosporidium parvum infection in vitro. […] MDCK cells were grown in 96-well microtiter plastic plates, and were seeded with approximately 5×10^4 cells per well, using DMEM as the growth/maintenance medium with 10% FCS. Plates were normally grown to confluence 2–3 days after having been seeded with bleached, less than four week-old, C. parvum oocysts. The C. parvum isolate used most often was the human-derived, calf-propagated GCH1 (Tzipori, Clin. Diagn. Lab. Immunol. (1994) 1:450; Tzipori, J. Infect. Dis. (1995) 172:1160). The DMEM medium was also added to the negative control wells. The tetracycline compounds and the oocysts were added to the wells concurrently. The cells were subsequently monitored twice daily and any apparent morphologic changes were recorded. The monolayers were fixed with methanol after 48 hour incubation at 37° C. in 8% CO2. […] The tetracycline compounds were used at various concentrations (0.1–2000 μg/mL) and were dissolved directly into the culture medium. A conventional indirect immunofluorecensce (IF) assay was used to detect and enumerate parasite forms after 48-hour incubation. For the purposes of this assay, a polyclonal rabbit anti-sporozoite antibody was produced. […] The secondary antibody, a fluoroscein-conjugated goat anti-rabbit IgG, was used at a concentration of 1:100, according the manufacturer's instructions. The primary antibody was added after fixation for thirty minutes and after vigorous washing, the secondary antibody was incubated for another thirty minutes. The dried microtiter plate was viewed with an inverted microscope (x10 mag.), under ultraviolet light. For parasite counts, a semi-automated video imaging MCID system was used to facilitate the enumeration and analysis of the parasite data. In Table 1, good inhibition of C. parvum is indicated by ‘*’ (e.g., 70% inhibition at concentrations above 10 μg/ml and above) and very good inhibition of C. parvum is indicated by ‘**’ (e.g., 70% inhibition at concentrations below 10 μg/ml).

| Structure (SMILES) | IC70 |
| --- | --- |
| C[C@H]1c2ccc(C(C)(C)C)c(O)c2C(=O)C2=C(O)[C@]3(O)C(=O)C(C(N)=O)=C(O)[C@@H](N(C)C)C3[C@@H](O)C21 (some centres unmarked) | < 10 µg/mL |
| C[C@H]1c2cccc(O)c2C(=O)C2=C(O)[C@]3(O)C(=O)C(C(N)=O)=C(O)[C@@H](N(C)C)C3[C@@H](O)C21 (some centres unmarked) | ≥ 10 µg/mL |
| C[C@H]1c2ccc(C3=CCCC3)c(O)c2C(=O)C2=C(O)[C@]3(O)C(=O)C(C(N)=O)=C(O)[C@@H](N(C)C)C3[C@@H](O)C21 (some centres unmarked) | < 10 µg/mL |
| CN(C)c1cc(C#CC2=CCCCC2)c(O)c2c1CC1CC3[C@H](N(C)C)C(O)=C(C(N)=O)C(=O)[C@@]3(O)C(O)=C1C2=O (some centres unmarked) | < 10 µg/mL |
| CN(C)[C@@H]1C(O)=C(C(N)=O)C(=O)[C@@]2(O)C(O)=C3C(=O)c4c(O)cccc4SC3[C@H](O)C12 (some centres unmarked) | ≥ 10 µg/mL |
| CCC(=O)O[C@H]1C2C(=C(O)[C@]3(O)C(=O)C(C(N)=O)=C(O)[C@@H](N(C)C)C13)C(=O)c1c(O)cccc1[C@@H]2CSC1CCCC1 (some centres unmarked) | < 10 µg/mL |
| CN(C)[C@@H]1C(O)=C(C(N)=O)C(=O)[C@@]2(O)C(O)=C3C(=O)c4c(O)cccc4[C@H](CSC4CCCC4)C3[C@H](O)C12 (some centres unmarked) | < 10 µg/mL |
| CCC(=O)O[C@H]1C2C(=C(O)[C@]3(O)C(=O)C(C(N)=O)=C(O)[C@@H](N(C)C)C13)C(=O)c1c(ccc(C(C)(C)C)c1O)[C@@H]2C (some centres unmarked) | ≥ 10 µg/mL |
